Read-outs that look alike come from different tables or passages of the source.
Key:
[1] = radiolabeled PK study ADME-rpt-7-053r95; cited from earlier work
[2] = Pharmacokinetics in ABSSSI patients after single 1200 mg IV oritavancin (ORBACTIV) in 1000 mL D5W; format: in vivo, human; conditions: plasma; for AUC(0-t) / half-life: iv, 1200 mg
Procedure: Oritavancin (as ORBACTIV®) was evaluated in double-blind, controlled ABSSSI clinical trials, which included 976 adult patients treated with a single 1200 mg intravenous dose of oritavancin in 1000 mL D5W. The formulation was prepared by adding 40 mL of sterile water for injection (WFI) to each of three 400 mg vials of ORBACTIV® to provide a 10 mg/mL solution per vial. Each vial was gently swirled to avoid foaming and ensure that all ORBACTIV powder was completely reconstituted in solution. […] The three solutions were combined and diluted to 1000 mL total volume with 5% dextrose in sterile water (D5W), to give a 1.2 mg/mL solution of oritavancin. The formulation was administered to each subject intravenously over 3 hours, and PK was measured (Table 20). The median age of patients treated with oritavancin was 45.6 years, ranging between 18 and 89 years of age with 8.8%≧65 years of age. Patients treated with oritavancin were predominantly male (65.4%), 64.4% were Caucasian, 5.8% were African American, and 28.1% were Asian. Safety was evaluated for up to 60 days after dosing.

[3] = Dilution in Hank's Balanced Salt Solution (HBSS, plasma surrogate): pH and visual observations; format: physicochemical; conditions: for time at which oritavancin started to fall out of solution: repeat with material 24 hours after reconstitution
Procedure: Reconstituting Orbactiv 400 mg (Oritavancin) in 20% w/v aqueous HPCD then diluting in Hank's Balanced Salt Solution (HBSS). 2.641 g of HPCD was dissolved in 13.205 mL of water to make a 20% w/v solution (pH=6.70). Eight (8) mL of the 20% w/v solution was added to a 400 mg vial of Orbactiv for a target oritavancin concentration of 50 mg/mL. […] A 1.5 mL aliquot of 50 mg/mL was removed from the vial and placed in a small glass vial and pH measured. Diluted 2 mL of 50 mg/mL oritavancin solution in 8 mL of HBSS. Visual observations and pH were recorded. (Table 12).
HBSS was used as a plasma surrogate in this experiment. Oritavancin at either 5 or 10 mg/mL precipitated from solution at 2 hours in HBSS. This experiment was repeated with the same material 24 hours later and observed over shorter time intervals. Diluted […] in a small glass vial to make a 10 mg/mL solution. Diluted […] in a small glass vial to make a 5 mg/mL solution. Solutions were observed and pH was tested every 0.25 hrs. (Table 14, Table 15).

[4] = mean, ABSSSI subjects, single 1200 mg IV dose over 3 hours (n = 297)
[5] = Table 12: 20% w/v HPCD reconstitution diluted in HBSS: oritavancin 10 mg/mL, HPCD 4% w/v, 0 hr
[6] = Table 12: 20% w/v HPCD reconstitution diluted in HBSS: oritavancin 10 mg/mL, HPCD 4% w/v, 0.5 hr
[7] = Table 12: 20% w/v HPCD reconstitution diluted in HBSS: oritavancin 10 mg/mL, HPCD 4% w/v, 1 hr
[8] = Table 12: 20% w/v HPCD reconstitution diluted in HBSS: oritavancin 10 mg/mL, HPCD 4% w/v, 2 hr
[9] = Table 14: repeat with 24-hour-old 20% w/v HPCD reconstitution diluted in HBSS: oritavancin 10 mg/mL, HPCD 2% w/v, 0 hr
[10] = Table 14: repeat with 24-hour-old 20% w/v HPCD reconstitution diluted in HBSS: oritavancin 10 mg/mL, HPCD 2% w/v, 0.25 hr
[11] = Table 15: 24-hour-old 20% w/v HPCD reconstitution diluted in HBSS: oritavancin 5 mg/mL, HPCD 2% w/v, 0 hr
[12] = Table 15: 24-hour-old 20% w/v HPCD reconstitution diluted in HBSS: oritavancin 5 mg/mL, HPCD 2% w/v, 0.25 hr
[13] = Table 15: 24-hour-old 20% w/v HPCD reconstitution diluted in HBSS: oritavancin 5 mg/mL, HPCD 2% w/v, 0.5 hr
[14] = Table 15: 24-hour-old 20% w/v HPCD reconstitution diluted in HBSS: oritavancin 5 mg/mL, HPCD 2% w/v, 0.75 hr
[15] = Table 15: 24-hour-old 20% w/v HPCD reconstitution diluted in HBSS: oritavancin 5 mg/mL, HPCD 2% w/v, 1 hr

## CN[C@H](CC(C)C)C(=O)N[C@H]1C(=O)N[C@@H](CC(N)=O)C(=O)N[C@H]2C(=O)N[C@H]3C(=O)N[C@H](C(=O)N[C@H](C(=O)O)c4cc(O)cc(O)c4-c4cc3ccc4O)[C@H](O[C@H]3C[C@](C)(N)[C@@H](O)[C@H](C)O3)c3ccc(c(Cl)c3)Oc3cc2cc(c3O[C@@H]2O[C@H](CO)[C@@H](O)[C@H](O)[C@H]2O[C@H]2C[C@](C)(NCc3ccc(-c4ccc(Cl)cc4)cc3)[C@@H](O)[C@H](C)O2)Oc2ccc(cc2Cl)[C@H]1O [Oritavancin]
[1]
  plasma AUC relative to whole blood AUC: 1.59 ×
  whole blood AUC as percentage of plasma AUC: 62.8%
[2]; both sexes, human, intravenous, 1200 mg dose in man, read-out: plasma exposure (AUC) in man
  AUC: ~2800 µg·h/mL
[2]; both sexes, human, mean, ABSSSI subjects, single 1200 mg IV dose over 3 hours (n = 297), read-out: AUC0-24
  AUC(0-t): 1110 µg·h/mL
[2]; both sexes, human, mean, ABSSSI subjects, single 1200 mg IV dose over 3 hours (n = 297), read-out: AUC0-72
  AUC(0-t): 1530 µg·h/mL
[2]; both sexes, human, mean, ABSSSI subjects, single 1200 mg IV dose over 3 hours (n = 297), read-out: T1/2,α (converted)
  half-life: 2.29 h
[2]; both sexes, human, mean, ABSSSI subjects, single 1200 mg IV dose over 3 hours (n = 297), read-out: T1/2,β (converted)
  half-life: 13.4 h
[2]; both sexes, human, mean, ABSSSI subjects, single 1200 mg IV dose over 3 hours (n = 297), read-out: T1/2,γ (converted)
  half-life: 245 h
[2]; both sexes, human, mean, ABSSSI subjects, single 1200 mg IV dose over 3 hours (n = 297), read-out: Vss
  Vd: 97.8 L
[2]; both sexes, human, per Orbactiv Package Insert (Comparative Example 4): 1200 mg IV, D5W, 3 h infusion
  AUC(0-inf): 2800 µg·h/mL
[2]; both sexes, human, per Orbactiv Package Insert (Comparative Example 4): 1200 mg IV, D5W, 3 h infusion, read-out: Cmax
  Cmax: 138 µg/mL
[2]; [4]
  AUC0-∞: 2800 µg·h/mL
  Cmax: 138 µg/mL
[3]; 5 mg/mL in HBSS (20% w/v HPCD reconstitution)
  time at which oritavancin precipitated from solution: 2 h
[3]; 5 mg/mL in HBSS
  time at which oritavancin started to fall out of solution: ~1.5 h
[3]; 10 mg/mL in HBSS (20% w/v HPCD reconstitution)
  time at which oritavancin precipitated from solution: 2 h
[3]; 10 mg/mL in HBSS
  time at which oritavancin started to fall out of solution: 0.5 h
[3]; 20% w/v aqueous HPCD reconstitution diluted into HBSS at 5 mg/mL
  time for which oritavancin remains in solution: at least 1 hour
[3]; [5]
  Observations: Clear, colorless solution
  pH: 5.83
[3]; [6]
  Observations: Clear, colorless solution
  pH: 5.86
[3]; [7]
  Observations: Clear, colorless solution
  pH: 5.87
[3]; [8]
  Observations: Flocculent white precipitate
  pH: 5.92
[3]; [9]
  Observations: Clear, colorless solution
  pH: 6.19
[3]; [10]
  Observations: Clear, colorless solution
  pH: 6.21
[3]; Table 14: repeat with 24-hour-old 20% w/v HPCD reconstitution diluted in HBSS: oritavancin 10 mg/mL, HPCD 2% w/v, 0.5 hr
  pH: 6.30
[3]; Table 14: repeat with 24-hour-old 20% w/v HPCD reconstitution diluted in HBSS: oritavancin 10 mg/mL, HPCD 2% w/v, 0.75 hr
  pH: 6.33
[3]; Table 14: repeat with 24-hour-old 20% w/v HPCD reconstitution diluted in HBSS: oritavancin 10 mg/mL, HPCD 2% w/v, 1 hr
  pH: 6.38
[3]; [11]
  Observations: Clear, colorless solution
  pH: 6.39
[3]; [12]
  Observations: Clear, colorless solution
  pH: 6.47
[3]; [13]
  Observations: Clear, colorless solution
  pH: 6.50
[3]; [14]
  Observations: Clear, colorless solution
  pH: 6.59
[3]; [15]
  Observations: Clear, colorless solution
  pH: 6.61
[3]; Table 15: 24-hour-old 20% w/v HPCD reconstitution diluted in HBSS: oritavancin 5 mg/mL, HPCD 2% w/v, 1.25 hr
  pH: 6.63
[3]; Table 15: 24-hour-old 20% w/v HPCD reconstitution diluted in HBSS: oritavancin 5 mg/mL, HPCD 2% w/v, 1.5 hr
  pH: 6.71
[3]; Table 15: 24-hour-old 20% w/v HPCD reconstitution diluted in HBSS: oritavancin 5 mg/mL, HPCD 2% w/v, 1.75 hr
  pH: 6.76
